According to paper PMC10709440, “High-throughput ligand profile characterization in novel cell lines expressing seven heterologous insect olfactory receptors for the detection of volatile plant biomarkers” (Scientific Reports, 2023):
Like-named read-outs stand apart in the source and are kept apart here.

What was measured:
Drosophila OR10a = biological target: T1, Drosophila OR10a (Drosophila melanogaster, UniProt Q9VYZ1); assay: Calcium ion fluorescence (GCaMP6) assay, OR10a stable HEK293 cell line; assay type: cell-based; parameters: key to DF norm AVERAGE OR10a: VOC ∆F divided by the plate's mean ∆F response to 50 µM VUAA1; details: for DF norm AVERAGE OR10a: threshold 0.05, below shown as 0
T1 construct: expressed in transfected cells
T1 sequence (Q9VYZ1 1-406): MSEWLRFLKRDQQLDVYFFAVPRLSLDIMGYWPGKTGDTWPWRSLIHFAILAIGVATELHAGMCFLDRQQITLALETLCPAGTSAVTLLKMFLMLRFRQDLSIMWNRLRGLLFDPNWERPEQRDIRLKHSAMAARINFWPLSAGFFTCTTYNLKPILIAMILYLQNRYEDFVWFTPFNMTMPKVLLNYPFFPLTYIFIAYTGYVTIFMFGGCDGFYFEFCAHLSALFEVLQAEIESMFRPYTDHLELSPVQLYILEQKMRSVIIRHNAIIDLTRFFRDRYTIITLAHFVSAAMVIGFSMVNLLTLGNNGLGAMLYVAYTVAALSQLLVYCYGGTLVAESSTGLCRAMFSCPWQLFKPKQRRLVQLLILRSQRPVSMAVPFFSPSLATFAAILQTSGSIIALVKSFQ
T1 sequence (Q9VNB5 1-486 partner): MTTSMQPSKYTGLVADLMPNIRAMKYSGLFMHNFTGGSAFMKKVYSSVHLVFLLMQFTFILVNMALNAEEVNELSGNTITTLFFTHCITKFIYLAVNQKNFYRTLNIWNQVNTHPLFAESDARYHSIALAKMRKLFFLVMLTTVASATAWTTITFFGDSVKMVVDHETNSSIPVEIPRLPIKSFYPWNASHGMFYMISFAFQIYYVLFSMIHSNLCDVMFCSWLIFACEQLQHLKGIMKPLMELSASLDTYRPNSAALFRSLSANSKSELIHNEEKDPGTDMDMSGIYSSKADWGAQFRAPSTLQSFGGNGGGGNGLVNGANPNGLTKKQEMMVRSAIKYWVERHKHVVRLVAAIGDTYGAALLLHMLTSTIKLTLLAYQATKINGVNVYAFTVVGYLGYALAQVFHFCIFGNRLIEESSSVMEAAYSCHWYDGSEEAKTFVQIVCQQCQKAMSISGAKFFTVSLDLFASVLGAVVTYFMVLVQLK
Description: (§1) These VUAA1 normalized ∆F values were used to compare the different receptors and ligands.
(§2) The concentration-dependent effect of the reference ligands on their cognate cell lines was examined in more detail. Twelve different ligand concentrations were measured on each cell line in an overall 0.01 μM to 100 μM concentration range with 5 repetitions with three technical replicates each time.
(§3) Twelve thousand to 18,000 cells were plated into each well of a black wall, transparent bottom 384-well microplate (Greiner) 48 h or 72 h before the measurements and were simultaneously treated with 1 μg/mL doxycycline. […] The plate has 24 columns, thus we could record responses in up to eight different cell lines in each plate. On the day of the experiment, the growth medium was replaced with 20 µL assay buffer/well (140 mM NaCl, 5 mM KCl, 2 mM CaCl2, 1 mM MgCl2, 5 mM HEPES-Na, 20 mM glucose, pH 7.3, 340 mOsm). […] Baseline fluorescence (F0) was recorded for 5 s, after which 7 µL VOC buffer (140 mM NaCl, 5 mM KCl, 2 mM CaCl2, 1 mM MgCl2, 5 mM HEPES-Na, 31 mM glucose, 0.1% DMSO, pH 7.3, 340 mOsm) was injected into each well in one row and the fluorescence response was recorded for an additional 30 s, at a rate of one read/sec. VOC solutions (VOC buffer with 4× concentration of the final measured VOC concentration, 9 µL/well was injected) were measured on the same wells in a second round with the same protocol. Each individual concentration of a specific VOC sample was recorded in three wells for the same cell line on the same microplate. The raw data were exported in xls file format, F0 and FMAX values, and the fluorescence intensity changes (∆F) were calculated in Excel (Microsoft) (Supplementary file Data summary.xlsx) using the following equation: ΔF=FMAX-F0/F0 (see also Fig. 1C). On each plate, we recorded the response of each cell line to 50 µM VUAA1. The average of these ∆F values of each cell line were used to calculate the VUAA1-normalized values for the rest of the plate, by dividing VOC response ∆F values by the average VUAA1 response ∆F value of the corresponding OR cell line. Each VOC-OR combination was measured three times as technical replicates. […] The average of these replicates were used as one ∆F and VUAA1-normalized ∆F in the following analysis.
(§4) In the next rows we tested the reference VOCs (or other VOCs known to activate the corresponding cell lines), in order to test if all cell lines are responsive. The remaining rows were used to test VOCs with unknown effect.
(§5) The recorded FMAX, F0, ∆F, VUAA1-normalized ∆F values, as well as the OR name, the name of the tested sample, and the final concentration for each well were copied into supplementary file Data summary.xlsx, that was used to summarize all the plates recorded. Here, the averages of the measurements were calculated for each receptor-VOC-concentration combination.

Drosophila OR49b = biological target: T2, Drosophila OR49b (Drosophila melanogaster, UniProt Q9V6H2); assay: cell-based; details: for Average response: mean of biological replicates; for DF norm AVERAGE OR49b: threshold 0.05, below shown as 0
T2 construct: expressed in transfected cells
T2 sequence (Q9V6H2 1-375): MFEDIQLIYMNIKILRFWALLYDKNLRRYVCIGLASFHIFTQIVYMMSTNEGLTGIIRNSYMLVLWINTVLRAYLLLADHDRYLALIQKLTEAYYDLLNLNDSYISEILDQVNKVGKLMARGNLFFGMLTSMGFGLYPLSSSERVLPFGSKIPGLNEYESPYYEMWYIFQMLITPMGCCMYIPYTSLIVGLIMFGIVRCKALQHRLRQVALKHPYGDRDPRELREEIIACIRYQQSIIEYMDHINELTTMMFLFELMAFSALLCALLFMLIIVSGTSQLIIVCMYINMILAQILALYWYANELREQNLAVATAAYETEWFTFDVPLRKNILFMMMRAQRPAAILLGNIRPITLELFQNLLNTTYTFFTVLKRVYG
T2 sequence (Q9VNB5 1-486 partner): T1 sequence (Q9VNB5 1-486 partner)
Description: as §1, §2, §3, §4, §5

[1] = ligand concentration 1 (unit not given)
[2] = ligand concentration 10 (unit not given)
[3] = ligand concentration 100 (unit not given)
[4] = OR49b cell line, odorant cc. 1 µM
[5] = OR49b cell line, odorant cc. 10 µM
[6] = OR49b cell line, odorant cc. 100 µM
[7] = HEK293, read-out: OR10a Average response (VUAA1-normalized)
[8] = HEK293, read-out: OR10a response (VUAA1-normalized response)
[9] = HEK293, read-out: OR49b Average response (VUAA1-normalized)
[10] = HEK293, read-out: OR49b response (VUAA1-normalized response)

Cc1ccccc1C [o-xylene] was tested, and the activation at 1 µM (Drosophila OR10a; HEK293, read-out: OR10a Average response (VUAA1-normalized), 1 μM VOC, 50 μM VUAA1 = 1, responses not exceeding 0.05 considered 0) was 0%, the activation at 10 µM (Drosophila OR10a; HEK293, read-out: OR10a Average response (VUAA1-normalized), 10 μM VOC, 50 μM VUAA1 = 1, responses not exceeding 0.05 considered 0) was 0% and the activation at 100 µM (Drosophila OR10a; HEK293, read-out: OR10a Average response (VUAA1-normalized), 100 μM VOC, 50 μM VUAA1 = 1, responses not exceeding 0.05 considered 0) was 0%. The “OR10a response (VUAA1-normalized) at 1 μM” value (Drosophila OR10a; OR10a cell line, VOC concentration 1 μM) was 0.00, the “OR10a response (VUAA1-normalized) at 10 μM” value (Drosophila OR10a; OR10a cell line, VOC concentration 10 μM) was 0.00 and the “OR10a response (VUAA1-normalized) at 100 μM” value (Drosophila OR10a; OR10a cell line, VOC concentration 100 μM) was 0.00. The “DF norm AVERAGE OR10a” value (Drosophila OR10a; [1]) was 0, the “DF norm AVERAGE OR10a” value (Drosophila OR10a; [2]) was 0 and the “DF norm AVERAGE OR10a” value (Drosophila OR10a; [3]) was 0. For the same compound, the activation at 1 µM (Drosophila OR49b; HEK293, 1 μM VOC, 50 μM VUAA1 = 1, read-out: OR49b Average response (VUAA1-normalized)) was 0%, the activation at 10 µM (Drosophila OR49b; HEK293, 10 μM VOC, 50 μM VUAA1 = 1, read-out: OR49b Average response (VUAA1-normalized)) was 9% and the activation at 100 µM (Drosophila OR49b; HEK293, 100 μM VOC, 50 μM VUAA1 = 1, read-out: OR49b Average response (VUAA1-normalized)) was 64%. The “OR49b response (VUAA1-normalized) at 1 μM” value (Drosophila OR49b; OR49b cell line, VOC concentration 1 μM) was 0.00, the “OR49b response (VUAA1-normalized) at 10 μM” value (Drosophila OR49b; OR49b cell line, VOC concentration 10 μM) was 0.09 and the “OR49b response (VUAA1-normalized) at 100 μM” value (Drosophila OR49b; OR49b cell line, VOC concentration 100 μM) was 0.64. The Average response (Drosophila OR49b; [4]) was 0.00, the Average response (Drosophila OR49b; [5]) was 0.09 and the Average response (Drosophila OR49b; [6]) was 0.64. The “DF norm AVERAGE OR49b” value (Drosophila OR49b; [1]) was 0, the “DF norm AVERAGE OR49b” value (Drosophila OR49b; [2]) was 0.08728 and the “DF norm AVERAGE OR49b” value (Drosophila OR49b; [3]) was 0.6438.

In the case of CCc1ccccc1 [ethylbenzene], the activation at 1 µM (Drosophila OR10a; [7]) is reported as 17%, the activation at 10 µM (Drosophila OR10a; [7]) is reported as 3.3% and the activation at 100 µM (Drosophila OR10a; [7]) is reported as 6%. It also gave an activation at 1 µM (Drosophila OR10a; [8]) of 17%, an activation at 10 µM (Drosophila OR10a; [8]) of 0% and an activation at 100 µM (Drosophila OR10a; [8]) of 6%. The “DF norm AVERAGE OR10a” value (Drosophila OR10a; [1]) was 0.1713, the “DF norm AVERAGE OR10a” value (Drosophila OR10a; [2]) was 0 and the “DF norm AVERAGE OR10a” value (Drosophila OR10a; [3]) was 0.05742. The activation at 1 µM (Drosophila OR49b; [9]) was 5%, the activation at 10 µM (Drosophila OR49b; [9]) was 9% and the activation at 100 µM (Drosophila OR49b; [9]) was 33%. It also gave an activation at 1 µM (Drosophila OR49b; [10]) of 5%, an activation at 10 µM (Drosophila OR49b; [10]) of 9% and an activation at 100 µM (Drosophila OR49b; [10]) of 33%. The Average response (Drosophila OR49b; [4]) was 0.05, the Average response (Drosophila OR49b; [5]) was 0.09 and the Average response (Drosophila OR49b; [6]) was 0.33. The “DF norm AVERAGE OR49b” value (Drosophila OR49b; [1]) was 0.05039, the “DF norm AVERAGE OR49b” value (Drosophila OR49b; [2]) was 0.08967 and the “DF norm AVERAGE OR49b” value (Drosophila OR49b; [3]) was 0.3273.

CCCCCCCO [1-heptanol] showed an activation at 1 µM (Drosophila OR10a; HEK293, 1 μM VOC, 50 μM VUAA1 = 1, responses not exceeding 0.05 considered 0, read-out: OR10a Average response (VUAA1-normalized)) of 1.56%, an activation at 10 µM (Drosophila OR10a; HEK293, 10 μM VOC, 50 μM VUAA1 = 1, responses not exceeding 0.05 considered 0, read-out: OR10a Average response (VUAA1-normalized)) of 6.57% and an activation at 100 µM (Drosophila OR10a; HEK293, 100 μM VOC, 50 μM VUAA1 = 1, responses not exceeding 0.05 considered 0, read-out: OR10a Average response (VUAA1-normalized)) of 0%. It also gave an activation at 1 µM (Drosophila OR10a; HEK293, read-out: OR10a response (VUAA1-normalized response), VOC concentration 1 μM) of 0%, an activation at 10 µM (Drosophila OR10a; HEK293, read-out: OR10a response (VUAA1-normalized response), VOC concentration 10 μM) of 6.57% and an activation at 100 µM (Drosophila OR10a; HEK293, read-out: OR10a response (VUAA1-normalized response), VOC concentration 100 μM) of 0%. It also gave an activation at 1 µM (Drosophila OR49b; HEK293, VOC concentration 1 μM, read-out: OR49b response (VUAA1-normalized response)) of 0%, an activation at 10 µM (Drosophila OR49b; HEK293, VOC concentration 10 μM, read-out: OR49b response (VUAA1-normalized response)) of 0% and an activation at 100 µM (Drosophila OR49b; HEK293, VOC concentration 100 μM, read-out: OR49b response (VUAA1-normalized response)) of 6%. The Average response (Drosophila OR49b; [4]) was 0.00, the Average response (Drosophila OR49b; [5]) was 0.00 and the Average response (Drosophila OR49b; [6]) was 0.06.
